Source: ChEMBL document CHEMBL5029181, “Synthesis and evaluation of potent novel inhibitors of human sulfide:quinone oxidoreductase” (Bioorg Med Chem Lett, 2021)
Values after ≈ are worked out from the molar mass of the structure shown.

Legend:
[1] = target: Sulfide:quinone oxidoreductase, mitochondrial (Homo sapiens, UniProt Q9Y6N5); experiment: Inhibition of human SQOR
[2] = Permeability of the compound from basolateral to apical side in human Caco-2 cells; type: ADME, cell-based; settings: read-out: permeability
[3] = Aqueous solubility of the compound at pH 7; settings: buffer
[4] = AUClast in mouse at 10 mg/kg, ip; type: ADME, organism-based; set-up: time 0 - last, route intraperitoneal, dose 10 mg/kg; settings: in vivo
[5] = Protein binding in mouse plasma; type: ADME, cell-free; settings: read-out: PPB (converted)
[6] = Permeability of the compound from apical to basolateral side in human Caco-2 cells; type: ADME, cell-based; settings: read-out: permeability
[7] = Half life in mouse at 10 mg/kg, ip; type: ADME, organism-based; settings: in vivo

Sulfide:quinone oxidoreductase, mitochondrial, sequence (Q9Y6N5 whole entry): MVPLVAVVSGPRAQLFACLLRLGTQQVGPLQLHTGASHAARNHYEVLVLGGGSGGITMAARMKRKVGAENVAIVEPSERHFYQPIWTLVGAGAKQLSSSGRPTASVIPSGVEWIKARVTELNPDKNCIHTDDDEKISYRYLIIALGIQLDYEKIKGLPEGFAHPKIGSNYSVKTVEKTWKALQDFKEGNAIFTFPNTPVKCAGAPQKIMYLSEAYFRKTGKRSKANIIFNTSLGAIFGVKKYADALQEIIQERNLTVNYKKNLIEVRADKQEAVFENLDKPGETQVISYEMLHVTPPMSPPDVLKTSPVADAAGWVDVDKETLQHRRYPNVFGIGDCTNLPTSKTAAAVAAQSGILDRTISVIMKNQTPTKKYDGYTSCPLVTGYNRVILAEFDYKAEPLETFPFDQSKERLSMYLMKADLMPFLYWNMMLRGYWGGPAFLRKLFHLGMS

Structure (SMILES) | IC50 [1] [nM] | further results
COc1nc(-c2ccccc2)cc(-c2ccc(Cl)cc2Cl)c1C#N | > 100000 | –
COc1nc(-c2ccccn2)cc(-c2ccc(F)cc2)c1C#N | 14 | –
COc1nc(-c2ccccc2)cc(-c2ccc(Cl)cc2)c1C#N | 252 | –
COc1nc(-c2cccnc2)cc(-c2ccc(F)cc2)c1C#N | 213 | –
COc1nc(-c2ccccc2)cc(-c2ccccc2)c1C#N | 53 | –
COc1ccc(-c2cc(-c3ccc(F)cc3)c(C#N)c(OC)n2)cc1 | 1360 | –
Cc1cccnc1-c1cc(-c2ccc(F)cc2)c(C#N)c(OCc2cccnc2)n1 | 36 | –
COc1nc(-c2ncccc2C)cc(-c2ccc(F)cc2)c1C#N | 8.7 | Papp B→A [2]: 0.769 ×10⁻⁶ cm/s; solubility [3]: 0.013 µM (≈ 4.15 ng/mL); AUC(0-t) [4]: 42 ng·h/mL; fraction unbound [5]: 0.0036; Papp A→B [6]: 0.455 ×10⁻⁶ cm/s; half-life [7]: 5.96 h
COc1ccccc1-c1cc(-c2ccc(F)cc2)c(C#N)c(OC)n1 | 75 | –
COc1nc(-c2ccccc2)cc(-c2ccncc2)c1C#N | 541 | –
COc1nc(-c2ccccc2)cc(-c2ccc(F)cc2)c1C#N | 25 | –
COc1nc(-c2ccccn2)cc(-c2ccc(F)cc2)c1C(N)=O | 16200 | –
COc1cccc(-c2cc(-c3ccc(F)cc3)c(C#N)c(OC)n2)c1 | 108 | –
COc1nc2c(c(-c3ccccc3)c1C#N)Cc1ccccc1-2 | 2.1 | –
COCCOc1nc(-c2ccccc2)cc(-c2ccc(F)cc2)c1C#N | 123 | –
CCSc1nc(-c2ccccc2)cc(-c2ccccc2)c1C#N | 132 | –
C=CCOc1nc(-c2ccccn2)cc(-c2ccc(F)cc2)c1C#N | 5.5 | –
N#Cc1c(-c2ccccc2)cc(-c2ccccc2)nc1OCc1ccccc1 | 100 | –
COc1nc(C(C)(C)C)cc(-c2ccc(F)cc2)c1C#N | 153 | –
COc1nc(-c2ccccn2)cc(C(C)(C)C)c1C#N | 850 | –
COc1nc(-c2ccncc2)cc(-c2ccc(F)cc2)c1C#N | 17400 | –
COc1nc(-c2ncccc2C)cc(-c2ccc(N)cc2)c1C#N | – | AUC(0-t) [4]: 1080 ng·h/mL; fraction unbound [5]: 0.022; half-life [7]: 1.13 h
